Tested on: BMDC primary cells
Test: Luc mRNA LNP transfection on BMDC primary cells (Embodiment 13, Table 3)
Assay type: cell-based, C57BL/6 mice
Conditions: 16 h, ONE-Glo Luciferase
Method: Preparation method: the same as that described in Embodiment 7.
Animal preparation: 6-week-old female C57BL/6 mice with the body weight about 20 g were selected. The feeding environment was an SPF stage feeding room. Animal tests were strictly performed according to the guide of the national health institute and the animal ethics requirements.
Cell acquisition: C57BL/6 mice were killed through cervical dislocation, and were soaked for 5 min in 75% ethyl alcohol. Dissection was performed to obtain thigh and calf tibiae of the mice. Attached muscles were removed to expose sclerotin. Then, bone marrow in tibiae was blown out by using a 1 mL injector sucked with PBS. After the bone marrow was blown away, impurities were filtered away by a 50 μm filter screen. A red blood cell lysis buffer (3-4 mL) was added into an obtained filtrate. Then, after placement for 5 min, 800 g centrifugation was performed for 5 min to remove the supernatant. The obtained cells were placed into a 1640 culture medium (containing 10% fetal calf serum, 20 ng/mL GMCSF and 10 ng/ml IL4) to be resuspended, and were inoculated into a 6-well plate at an inoculation density of 100000 cells/ml culture medium. The materials were placed into a 37° C. cell incubator containing 5% CO2. Half liquid change was performed once every 2 days. Suspended cells and loose wall attached cells were collected on the seventh day, and were […], and the volume of a culture medium was 100 μL.
Cell transfection: lipid nanoparticles coated with luciferase mRNA were added into a 96-well all-white ELISA plate laid with primary cells. The adding volume of the mRNA lipid nanoparticles in each well was controlled to be 10 μL. Then, the materials were put into a 37° C. incubator containing 5% CO2 for 16 h.
Transfection efficiency detection: 20 μL of a substrate ONE-Glo™ Luciferase was added into each well of a 96-well all-white ELISA plate. After 1 min, detection was performed by a multifunctional or multimode microplate reader.

Row | SMILES | Luciferase luminescence intensity
1 | CCCCCCCCCCCCCCCC(=O)OCC(OC(=O)C(C)CCN(C)C)C(CCCC)CCCCC (stereo not drawn) [E21C11A10] | 1.7E+ 04
2 | CCCCCCCCCCCCCCC(C)C(=O)OCC(CCCCCCC)OC(=O)CCCCN(C)C (stereo not drawn) [E4C74A11] | 6.0E+ 04
3 | CCCCCCCCCCCC(COC(=O)C(CCCCCC)CCCCCCCC)OC(=O)CCCCN(C)C (stereo not drawn) [E8C71A11] | 5.4E+ 04
4 | CCCCCCCCCCCC(COC(=O)C(CCCCCC)CCCCCC)OC(=O)C(C)CCN(C)C (stereo not drawn) [E9C64A10] | 6.1E+ 04
5 | CCCCCCCCCCCCCCCC(=O)OCC(OC(=O)CCCN(C)C)C(CCCC)CCCCC (stereo not drawn) [E21C11A9] | 8.7E+ 03
6 | CCCCCCCCC(COC(=O)C(CCCCCC)CCCCCCCC)OC(=O)CCCCN(C)C (stereo not drawn) [E5C71A11] | 4.6E+ 04
7 | CCCCCCCCCC(CCCCCCC)C(=O)OCC(CCCCCCC)OC(=O)CCCCN(C)C (stereo not drawn) [E4C79A11] | 3.4E+ 04
8 | CCCCCCCCCC(CCCCCCC)C(=O)OCC(CCCCCCC)OC(=O)CCCCCN(C)C (stereo not drawn) [E4C79A12] | 2.5E+ 04
9 | CCCCCCCCCCCCCCC(C)C(=O)OCC(CCCCCCCCC)OC(=O)C(C)CCN(C)C (stereo not drawn) [E6C74A10] | 1.1E+ 04
10 | CCC(CC)CCCCCC(COC(=O)CCCCCCCCCCCC(C)C)OC(=O)CCCN(C)C (stereo not drawn) [E20C67A9] | 9.5E+ 03
11 | CCCCCCCCCCCCCCC(C)C(=O)OCC(CCCCCCC)OC(=O)C(C)CCN(C)C (stereo not drawn) [E4C74A10] | 4.7E+ 04
12 | CCCCCCCCCC(COC(=O)C(CCCCCCC)CCCCCCCCC)OC(=O)C(C)CCN(C)C (stereo not drawn) [E6C79A10] | 4.6E+ 04
13 | CCCCCCCCCC(CCCCCCC)C(=O)OCC(CCCCCCC)OC(=O)CCCN(C)C (stereo not drawn) [E4C79A9] | 2.2E+ 04
14 | CCCCCCCCCCCCCCCC(COC(=O)CCCCCCCCCC)OC(=O)CCCCN(C)C (stereo not drawn) [E12C6A11] | 1.2E+ 04
15 | CCCCCCCCCCCCCCCC(=O)OCC(CCCCCC(CC)CC)OC(=O)C(C)CCN(C)C (stereo not drawn) [E20C11A10] | 4.5E+ 04
16 | CCCCCCCCCCCCCCCCC(=O)OCC(CCCCCC(CC)CC)OC(=O)C(C)CCN(C)C (stereo not drawn) [E20C12A10] | 9.6E+ 04
17 | CCCCCCCCCCCCCCCCC(=O)OCC(OC(=O)C(C)CCN(C)C)C(CCCC)CCCCC (stereo not drawn) [E21C12A10] | 8.9E+ 04
18 | CCCCCCCCCC(CCCCCCC)C(=O)OCC(CCCCCC)OC(=O)C(C)CCN(C)C (stereo not drawn) [E3C79A10] | 7.4E+ 04
19 | CCCCCCCCCCCCCCC(COC(=O)C(CC)CCCCCCCCC)OC(=O)CCCCN(C)C (stereo not drawn) [E11C60A11] | 3.3E+ 04
20 | CCCCCCCCCC(COC(=O)C(CCCCCCC)CCCCCCCCC)OC(=O)CCCCCN(C)C (stereo not drawn) [E6C79A12] | 2.5E+ 04
21 | CCCCCCCCCCCCC(COC(=O)C(C)(C)CCCCCCCC)OC(=O)CCCCN(C)C (stereo not drawn) [E9C58A11] | 3.5E+ 04
22 | CCCCCCCCCCCCCCCCC(=O)OCC(CCCCCC(CC)CC)OC(=O)CCCN(C)C (stereo not drawn) [E20C12A9] | 4.9E+ 04
23 | CCCCCCCCCCCCCCC(C)C(=O)OCC(CCCCCCCCCC)OC(=O)CCCN(C)C (stereo not drawn) [E7C74A9] | 4.8E+ 04
24 | CCCCCCCCCCCCCCCCC(=O)OCC(OC(=O)CCCCN(C)C)C(CCCC)CCCCC (stereo not drawn) [E21C12A11] | 9.5E+ 04
25 | CCCCCCCCCCCCCCCC(COC(=O)C(C)CCCCCCCCCCCCCC)OC(=O)CCCCN(C)C (stereo not drawn) [E12C74A11] | 1.1E+ 04
26 | CCCCCCCCCCCCCC(C)C(=O)OCC(CCCCCC(CC)CC)OC(=O)CCCN(C)C (stereo not drawn) [E20C72A9] | 4.7E+ 03

Row | SMILES | Luciferase luminescence intensity
27 | CCCCCCCCCCCCCCC(COC(=O)C(CCCCC)CCCCC)OC(=O)CCCCN(C)C (stereo not drawn) [E11C57A11] | 6.4E+ 04
28 | CCCCCCCCCC(CCCCCCC)C(=O)OCC(CCCCCCC)OC(=O)C(C)CCN(C)C (stereo not drawn) [E4C79A10] | 1.3E+ 04
29 | CCCCCCCCCCCCCCC(C)C(=O)OCC(CCCCCCCCCC)OC(=O)C(C)CCN(C)C (stereo not drawn) [E7C74A10] | 3.7E+ 04
30 | CCCCCCCCCCCC(COC(=O)C(CCCCCC)CCCCCCCC)OC(=O)CCCN(C)C (stereo not drawn) [E8C71A9] | 8.8E+ 04
31 | CCCCCCCCCCCCC(COC(=O)CCCCCCCCCCCC(C)C)OC(=O)C(C)CCN(C)C (stereo not drawn) [E9C67A10] | 7.8E+ 04
32 | CCCCCCCCCCCCCCC(=O)OCC(CCCCCC(CC)CC)OC(=O)CCCCCN(C)C (stereo not drawn) [E20C10A12] | 3.6E+ 04
33 | CCCCCCCC/C=C/CCCCCCCC(=O)OCC(CCCCCCCC)OC(=O)C1CCN(C)CC1 (stereo not drawn) [E5C82A23, 1-(Octadec-9-Enoyloxy) Decan-2-Yl 1-Methylpiperidine-4-Carboxylate] | 1.4E+ 04
34 | CCCCCCCCCCCCCCCC(=O)OCC(OC(=O)CCCCN(C)C)C(CCCC)CCCCC (stereo not drawn) [E21C11A11] | 4.7E+ 04
35 | CCCCCCCCCC(COC(=O)C(CCCCCC)CCCCCCCC)OC(=O)CCCCN(C)C (stereo not drawn) [E6C71A11] | 3.4E+ 04
36 | CCCCCCCCCCC(COC(=O)C(CCCCCCC)CCCCCCCCC)OC(=O)CCCCCN(C)C (stereo not drawn) [E7C79A12] | 3.5E+ 04
37 | CCCCCCCCCCCCC(COC(=O)CCCCCCCCCC(C)CC)OC(=O)C(C)CCN(C)C (stereo not drawn) [E9C63A10] | 5.6E+ 04
38 | CCCCCCCCCCCCCCC(COC(=O)CCCCCCCCCCC)OC(=O)CCCN(C)C (stereo not drawn) [E11C7A9, 2-((4-(Dimethylamino)Butanoyl)Oxy)Hexadecyl Dodecanoate] | 1.5E+ 04
39 | CCCCCCCCCCC(COC(=O)C(CCCCCCC)CCCCCCCCC)OC(=O)CCCCN(C)C (stereo not drawn) [E7C79A11] | 4.2E+ 04
40 | C=CCCCCC(COC(=O)C(CCCCCCC)CCCCCCCCC)OC(=O)C(C)CCN(C)C (stereo not drawn) [E15C79A10] | 8.9E+ 04
41 | CCCCCCCCCC(CCCCCCC)C(=O)OCC(CCCCCC)OC(=O)CCCCCN(C)C (stereo not drawn) [E3C79A12] | 6.7E+ 04
42 | CCCCCCCCCCCC(COC(=O)C(CCCCCC)CCCCCCCC)OC(=O)C1CCN(C)CC1 (stereo not drawn) [E8C71A23] | 1.5E+ 04
43 | CCCCCCCCCCCCCCC(C)C(=O)OCC(CCCCCCCC)OC(=O)C(C)CCN(C)C (stereo not drawn) [E5C74A10] | 2.9E+ 04
44 | CCCCCCCCCCCCCCCCC(=O)OCC(CCCCCC(CC)CC)OC(=O)C1CCN(C)CC1 (stereo not drawn) [E20C12A23] | 1.7E+ 04
45 | CCCCCCCCCCCCC(COC(=O)C(C)(C)CCCCCCCCCC)OC(=O)CCCN(C)C (stereo not drawn) [E9C66A9] | 2.3E+ 04
46 | CCCCCCCCCCCCCCC(=O)OCC(CCCCCC(CC)CC)OC(=O)CCCCN(C)C (stereo not drawn) [E20C10A11] | 1.9E+ 04
47 | CCCCCCCCCCCCCCC(=O)OCC(CCCCCC(CC)CC)OC(=O)CCCN(C)C (stereo not drawn) [E20C10A9] | 4.8E+ 04
48 | CCCCCCCCCCCCCCC(=O)OCC(CCCCCC(CC)CC)OC(=O)C(C)CCN(C)C (stereo not drawn) [E20C10A10] | 1.2E+ 04
49 | CCCCCCCCCCCCCCC(C)C(=O)OCC(CCCCCCCCC)OC(=O)CCCCN(C)C (stereo not drawn) [E6C74A11] | 4.5E+ 04
50 | CCCCCCCCCCCCCCCCCCC(=O)OCC(OC(=O)CCCN(C)C)C(CCCC)CCCCC (stereo not drawn) [E21C14A9] | 4.5E+ 04
51 | CCCCCCCCCCCCCCCCC(=O)OCC(OC(=O)CCCN(C)C)C(CCCC)CCCCC (stereo not drawn) [E21C12A9] | 5.4E+ 04
